“Also recorded” adds a separate entry of the source.
Test: Amount of doxorubicin in tumor and organs after injection
Type: in vivo, mice
Description: To perform a pharmacokinetic experiment, mice were sacrificed on day 1, day 6, day 12, and day 18. Organs (tumors, the intestines, lungs, kidneys, liver, spleen, and heart) were immediately acquired and photographed (FIG. 12). To measure the amount of doxorubicin remaining in each organ, each organ was homogenized in a 0.3N HCl/70% ethanol solution at 25,000 rpm to 30,000 rpm using a T 10 basic ULTRA-TURRAX Homogenizer (IKA-Werke GmbH & Co., Staufen, Germany), followed by incubation at 37° C. for 15 minutes. Each uniformly mixed sample was mixed with the same volume of 40% ZnSO4 and a mobile phase, and incubated again at 37° C. for 15 minutes. When the incubation was completed, each sample was centrifuged at 2,000 rpm for 10 minutes, and the amount of doxorubicin contained in the supernatant was calculated by referring to the standard calibration curve. The amount of doxorubicin contained in each organ was measured by a UV-visible Spectrophotometer (V-770, JASCO Inc., Tokyo, Japan) (FIG. 13).

For `COc1cccc2c1C(=O)c1c(O)c3c(c(O)c1C2=O)C[C@@](O)(C(=O)CO)C[C@@H]3O[C@H]1C[C@H](N)[C@H](O)[C@H](C)O1` [Dox, doxorubicin], the “occurrence of side effects due to the anticancer agent” value (Dox repeat injection (0.1 mg Dox)) was “induces various side effects”, the “distribution of anticancer agent in tumor and organs” value (Dox repeat injection (0.1 mg Dox), compared to injection of doxorubicin alone (FIG. 13)) was “a large amount of anticancer agent is present in a tumor; also recorded: a large amount of anticancer agent remains in various organs” and the “distribution of anticancer agent in tumor and organs” value (single injection 0.4 mg Dox, day 1, 6, 12, 18 (FIG. 13)) was “distributed more rapidly to various organs than a tumor”.

Source: patent US20240316249A1, “INJECTION FORMULATION COMPOSITION FOR USE AS FILLER OR DRUG CARRIER THROUGH CLICK CHEMISTRY REACTION” (AJOU UNIVERSITY INDUSTRY-ACADEMIC COOPERATION FOUNDATION, priority 2018, published 2024)
